# Measured values published in ChEMBL document CHEMBL1144350, “Synthesis and evaluation of imidazolylmethylenetetrahydronaphthalenes and imidazolylmethyleneindanes: potent inhibitors of aldosterone synthase” (J Med Chem, 2005).
# Tests used:
# [1] = target: T1, Cytochrome P450 11B1, mitochondrial (Bos taurus, UniProt P15150); assay: In vitro inhibition against bovine cytochrome P450 11B with 200 uM corticosterone; settings: cyp11b
# T1 sequence (P15150 whole entry): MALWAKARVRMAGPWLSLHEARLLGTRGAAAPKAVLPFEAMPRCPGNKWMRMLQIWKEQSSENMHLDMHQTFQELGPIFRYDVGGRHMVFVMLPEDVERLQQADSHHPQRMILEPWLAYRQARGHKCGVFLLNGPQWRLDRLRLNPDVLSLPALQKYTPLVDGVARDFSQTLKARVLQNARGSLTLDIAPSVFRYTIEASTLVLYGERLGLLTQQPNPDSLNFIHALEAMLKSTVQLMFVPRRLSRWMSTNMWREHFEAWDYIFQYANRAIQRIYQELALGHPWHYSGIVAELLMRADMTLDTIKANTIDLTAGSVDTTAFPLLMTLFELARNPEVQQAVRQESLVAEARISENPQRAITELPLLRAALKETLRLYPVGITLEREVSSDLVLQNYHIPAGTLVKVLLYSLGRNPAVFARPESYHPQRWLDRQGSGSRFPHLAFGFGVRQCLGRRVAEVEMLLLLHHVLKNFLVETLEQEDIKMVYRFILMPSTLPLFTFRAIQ
# [2] = target: T2, Steroid 17-alpha-hydroxylase/17,20 lyase (Homo sapiens, UniProt P05093); assay: In vitro inhibition against human […] cytochrome P450 17 expressed in Escherichia coli with 2.5 uM progesterone
# T2 sequence (P05093 whole entry): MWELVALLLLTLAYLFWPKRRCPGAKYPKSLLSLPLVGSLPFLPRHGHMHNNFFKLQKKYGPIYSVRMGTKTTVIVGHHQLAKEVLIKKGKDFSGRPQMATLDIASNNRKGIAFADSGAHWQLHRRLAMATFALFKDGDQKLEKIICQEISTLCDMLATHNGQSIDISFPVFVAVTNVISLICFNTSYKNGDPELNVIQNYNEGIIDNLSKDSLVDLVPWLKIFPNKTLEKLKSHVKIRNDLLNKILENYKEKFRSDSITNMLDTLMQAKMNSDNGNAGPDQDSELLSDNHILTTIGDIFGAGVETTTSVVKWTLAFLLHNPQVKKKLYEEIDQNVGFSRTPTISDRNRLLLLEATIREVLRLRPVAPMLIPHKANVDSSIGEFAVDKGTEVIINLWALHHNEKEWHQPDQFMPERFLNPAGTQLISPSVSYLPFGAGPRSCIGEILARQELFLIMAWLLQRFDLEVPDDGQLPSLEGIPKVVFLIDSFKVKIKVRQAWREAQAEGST
# [3] = target: T3, Cytochrome P450 11B2, mitochondrial (Homo sapiens, UniProt P19099); assay: In vitro inhibition of [14C]deoxycorticosterone binding to human cytochrome P450 11B2 expressed in hamster V79 MZh cells; type: cell-based
# T3 sequence (P19099 whole entry): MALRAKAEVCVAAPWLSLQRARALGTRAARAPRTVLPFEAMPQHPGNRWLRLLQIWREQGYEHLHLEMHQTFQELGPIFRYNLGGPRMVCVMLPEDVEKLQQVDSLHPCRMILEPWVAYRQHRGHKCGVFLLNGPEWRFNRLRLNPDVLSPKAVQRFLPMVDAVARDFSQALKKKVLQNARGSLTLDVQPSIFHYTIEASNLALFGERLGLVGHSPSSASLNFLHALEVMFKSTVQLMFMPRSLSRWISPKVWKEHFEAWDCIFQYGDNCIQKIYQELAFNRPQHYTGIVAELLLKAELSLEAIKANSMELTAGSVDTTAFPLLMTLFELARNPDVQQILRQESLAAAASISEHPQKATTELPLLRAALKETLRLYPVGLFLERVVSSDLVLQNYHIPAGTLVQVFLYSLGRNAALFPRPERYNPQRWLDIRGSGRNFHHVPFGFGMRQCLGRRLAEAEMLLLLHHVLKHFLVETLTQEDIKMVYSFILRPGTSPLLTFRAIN
# [4] = target: T3, Cytochrome P450 11B2, mitochondrial; assay: In vitro inhibition of human cytochrome P450 11B2 expressed in Schizosaccharomyces pombe with 500 nM deoxy-corticosterone
# [5] = target: T4, Cytochrome P450 11B1, mitochondrial (Homo sapiens, UniProt P15538); assay: In vitro inhibition of [14C]deoxycorticosterone binding to human cytochrome P450 11B1 expressed in hamster V79 MZh cells; type: cell-based
# T4 sequence (P15538 whole entry): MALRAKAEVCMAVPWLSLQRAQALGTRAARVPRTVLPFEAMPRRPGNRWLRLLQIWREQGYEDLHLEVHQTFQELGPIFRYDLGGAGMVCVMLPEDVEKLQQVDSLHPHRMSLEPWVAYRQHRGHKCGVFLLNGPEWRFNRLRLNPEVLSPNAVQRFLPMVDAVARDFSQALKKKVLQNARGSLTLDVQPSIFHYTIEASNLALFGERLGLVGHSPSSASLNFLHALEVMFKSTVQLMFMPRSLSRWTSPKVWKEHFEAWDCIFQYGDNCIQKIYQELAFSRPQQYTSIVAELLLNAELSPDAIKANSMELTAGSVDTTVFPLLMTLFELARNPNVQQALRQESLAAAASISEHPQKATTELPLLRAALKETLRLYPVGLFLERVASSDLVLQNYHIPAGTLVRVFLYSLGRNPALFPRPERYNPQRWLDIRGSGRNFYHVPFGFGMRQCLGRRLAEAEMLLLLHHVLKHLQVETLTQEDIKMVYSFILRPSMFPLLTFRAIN
# [6] = target: T5, Aromatase (Homo sapiens, UniProt P11511)
# T5 sequence (P11511 whole entry): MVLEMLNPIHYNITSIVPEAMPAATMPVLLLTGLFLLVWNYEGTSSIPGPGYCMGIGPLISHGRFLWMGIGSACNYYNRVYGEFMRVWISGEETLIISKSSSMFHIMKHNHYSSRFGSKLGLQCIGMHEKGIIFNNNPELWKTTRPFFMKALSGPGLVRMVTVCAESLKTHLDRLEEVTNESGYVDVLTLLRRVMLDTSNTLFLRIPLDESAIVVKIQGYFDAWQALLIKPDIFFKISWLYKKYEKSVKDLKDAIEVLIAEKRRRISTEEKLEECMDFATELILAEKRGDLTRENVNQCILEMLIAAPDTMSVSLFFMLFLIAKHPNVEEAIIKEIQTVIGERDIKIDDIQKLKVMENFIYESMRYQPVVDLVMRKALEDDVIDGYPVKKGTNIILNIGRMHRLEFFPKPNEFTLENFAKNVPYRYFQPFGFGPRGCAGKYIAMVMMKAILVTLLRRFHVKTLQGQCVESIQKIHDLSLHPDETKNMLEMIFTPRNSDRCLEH
# Description: In vitro inhibitory concentration against human placental cytochrome P450 19 with 2.5 uM testosterone
IC50 [5] [nM],SMILES,Inhibition [1] [%],Inhibition [2] [%],IC50 [3] [nM],Inhibition [4] [%],IC50 [6] [nM]
–,Brc1ccc2c(c1)CC/C2=C/c1c[nH]cn1,88,15,10.3,76,–
12.3,N#Cc1ccc2c(c1)CC/C2=C/c1ncc[nH]1,100,4,35.7,65,15
–,Clc1ccc2c(c1)/C(=C/c1c[nH]cn1)CCC2,66,24,47.3,48,120
–,Clc1ccc2c(c1)CC/C2=C/c1c[nH]cn1,87,26,–,80,39
–,N#Cc1ccc2c(c1)/C(=C\c1c[nH]cn1)CCC2,97,3,–,23,810
–,N#Cc1ccc2c(c1)/C(=C/c1cnc[nH]1)CCC2,62,2,–,8,970
–,Fc1ccc2c(c1)CC/C2=C/c1c[nH]cn1,64,11,–,58,–
–,C(=C1\CCCc2ccccc21)/c1c[nH]cn1,95,13,–,82,190
